Results: article PMC10006169, “A phase I trial of LXS196, a protein kinase C (PKC) inhibitor, for metastatic uveal melanoma” (British Journal of Cancer, 2023)

Tested on: patients with MUM
Experiment: Adverse events suspected to be study drug related (NCI-CTCAE v4.03)
Assay type: in vivo, human
Procedure: Routine safety assessments, including laboratory assessments, physical examinations, vital signs and electrocardiograms (ECGs), were conducted at regular intervals throughout the study and more frequently as needed following patient assessment by the treating physician. Adverse events (AEs) were assessed continuously according to the National Cancer Institute Common Terminology Criteria for Adverse Events (NCI-CTCAE) v4.03.

SMILES: CC1(N)CCN(c2cccnc2NC(=O)c2nc(-c3ncccc3C(F)(F)F)cnc2N)CC1 [LXS196]
- ALT increased, all grades (100 mg QD): 0 n (%)
- ALT increased, grade ≥3 (100 mg QD): 0 n (%)
- AST increased, all grades (100 mg QD): 0 n (%)
- AST increased, grade ≥3 (100 mg QD): 0 n (%)
- Asthenia, all grades (100 mg QD): 0 n (%)
- Asthenia, grade ≥3 (100 mg QD): 0 n (%)
- Blood creatinine increased, all grades (100 mg QD): 0 n (%)
- Blood creatinine increased, grade ≥3 (100 mg QD): 0 n (%)
- Constipation, all grades (100 mg QD): 1 (33.3) n (%)
- Constipation, grade ≥3 (100 mg QD): 0 n (%)
- Diarrhoea, all grades (100 mg QD): 1 (33.3) n (%)
- Diarrhoea, grade ≥3 (100 mg QD): 0 n (%)
- Dry skin, all grades (100 mg QD): 0 n (%)
- Dry skin, grade ≥3 (100 mg QD): 0 n (%)
- Fatigue, all grades (100 mg QD): 0 n (%)
- Fatigue, grade ≥3 (100 mg QD): 0 n (%)
- Hypotension, all grades (100 mg QD): 0 n (%)
- Hypotension, grade ≥3 (100 mg QD): 0 n (%)
- Nausea, all grades (100 mg QD): 2 (66.7) n (%)
- Nausea, grade ≥3 (100 mg QD): 0 n (%)
- Patients with ≥1 AE, all grades (100 mg QD): 2 (66.7) n (%)
- Patients with ≥1 AE, grade ≥3 (100 mg QD): 0 n (%)
- Rash, all grades (100 mg QD): 0 n (%)
- Rash, grade ≥3 (100 mg QD): 0 n (%)
- Vomiting, all grades (100 mg QD): 0 n (%)
- Vomiting, grade ≥3 (100 mg QD): 0 n (%)
- ALT increased, all grades (200 mg QD): 0 n (%)
- ALT increased, grade ≥3 (200 mg QD): 0 n (%)
- AST increased, all grades (200 mg QD): 0 n (%)
- AST increased, grade ≥3 (200 mg QD): 0 n (%)
- Asthenia, all grades (200 mg QD): 1 (25.0) n (%)
- Asthenia, grade ≥3 (200 mg QD): 0 n (%)
- Blood creatinine increased, all grades (200 mg QD): 1 (25.0) n (%)
- Blood creatinine increased, grade ≥3 (200 mg QD): 0 n (%)
- Constipation, all grades (200 mg QD): 2 (50.0) n (%)
- Constipation, grade ≥3 (200 mg QD): 0 n (%)
- Diarrhoea, all grades (200 mg QD): 1 (25.0) n (%)
- Diarrhoea, grade ≥3 (200 mg QD): 0 n (%)
- Dry skin, all grades (200 mg QD): 0 n (%)
- Dry skin, grade ≥3 (200 mg QD): 0 n (%)
- Fatigue, all grades (200 mg QD): 0 n (%)
- Fatigue, grade ≥3 (200 mg QD): 0 n (%)
- Hypotension, all grades (200 mg QD): 0 n (%)
- Hypotension, grade ≥3 (200 mg QD): 0 n (%)
- Nausea, all grades (200 mg QD): 2 (50.0) n (%)
- Nausea, grade ≥3 (200 mg QD): 1 (25.0) n (%)
- Patients with ≥1 AE, all grades (200 mg QD): 4 (100) n (%)
- Patients with ≥1 AE, grade ≥3 (200 mg QD): 2 (50.0) n (%)
- Rash, all grades (200 mg QD): 0 n (%)
- Rash, grade ≥3 (200 mg QD): 0 n (%)
- Vomiting, all grades (200 mg QD): 2 (50.0) n (%)
- Vomiting, grade ≥3 (200 mg QD): 1 (25.0) n (%)
- ALT increased, all grades (300 mg BID (RDE)): 5 (27.8) n (%)
- ALT increased, grade ≥3 (300 mg BID (RDE)): 1 (5.6) n (%)
- AST increased, all grades (300 mg BID (RDE)): 3 (16.7) n (%)
- AST increased, grade ≥3 (300 mg BID (RDE)): 1 (5.6) n (%)
- Asthenia, all grades (300 mg BID (RDE)): 4 (22.2) n (%)
- Asthenia, grade ≥3 (300 mg BID (RDE)): 0 n (%)
- Blood creatinine increased, all grades (300 mg BID (RDE)): 2 (11.1) n (%)
- Blood creatinine increased, grade ≥3 (300 mg BID (RDE)): 0 n (%)
- Constipation, all grades (300 mg BID (RDE)): 1 (5.6) n (%)
- Constipation, grade ≥3 (300 mg BID (RDE)): 0 n (%)
- Diarrhoea, all grades (300 mg BID (RDE)): 11 (61.1) n (%)
- Diarrhoea, grade ≥3 (300 mg BID (RDE)): 1 (5.6) n (%)
- Dry skin, all grades (300 mg BID (RDE)): 4 (22.2) n (%)
- Dry skin, grade ≥3 (300 mg BID (RDE)): 0 n (%)
- Fatigue, all grades (300 mg BID (RDE)): 3 (16.7) n (%)
- Fatigue, grade ≥3 (300 mg BID (RDE)): 0 n (%)
- Hypotension, all grades (300 mg BID (RDE)): 3 (16.7) n (%)
- Hypotension, grade ≥3 (300 mg BID (RDE)): 0 n (%)
- Nausea, all grades (300 mg BID (RDE)): 14 (77.8) n (%)
- Nausea, grade ≥3 (300 mg BID (RDE)): 0 n (%)
- Patients with ≥1 AE, all grades (300 mg BID (RDE)): 17 (94.4) n (%)
- Patients with ≥1 AE, grade ≥3 (300 mg BID (RDE)): 2 (11.1) n (%)
- Rash, all grades (300 mg BID (RDE)): 4 (22.2) n (%)
- Rash, grade ≥3 (300 mg BID (RDE)): 0 n (%)
- Vomiting, all grades (300 mg BID (RDE)): 7 (38.9) n (%)
- Vomiting, grade ≥3 (300 mg BID (RDE)): 0 n (%)
- ALT increased, all grades (300 mg QD): 3 (20.0) n (%)
- ALT increased, grade ≥3 (300 mg QD): 1 (6.7) n (%)
- AST increased, all grades (300 mg QD): 1 (6.7) n (%)
- AST increased, grade ≥3 (300 mg QD): 1 (6.7) n (%)
- Asthenia, all grades (300 mg QD): 3 (20.0) n (%)
- Asthenia, grade ≥3 (300 mg QD): 0 n (%)
- Blood creatinine increased, all grades (300 mg QD): 1 (6.7) n (%)
- Blood creatinine increased, grade ≥3 (300 mg QD): 0 n (%)
- Constipation, all grades (300 mg QD): 1 (6.7) n (%)
- Constipation, grade ≥3 (300 mg QD): 0 n (%)
- Diarrhoea, all grades (300 mg QD): 4 (26.7) n (%)
- Diarrhoea, grade ≥3 (300 mg QD): 0 n (%)
- Dry skin, all grades (300 mg QD): 1 (6.7) n (%)
- Dry skin, grade ≥3 (300 mg QD): 0 n (%)
- Fatigue, all grades (300 mg QD): 7 (46.7) n (%)
- Fatigue, grade ≥3 (300 mg QD): 0 n (%)
- Hypotension, all grades (300 mg QD): 1 (6.7) n (%)
- Hypotension, grade ≥3 (300 mg QD): 0 n (%)
- Nausea, all grades (300 mg QD): 9 (60.0) n (%)
